Measured values as given in PMC9863657, “A Tailored Strategy to Crosslink the Aspartate Transcarbamoylase Domain of the Multienzymatic Protein CAD” (Molecules, 2023).

Legend:
[1] = biological target: T1, ctATC (ATC domain of C. thermophilum CAD-like protein) (Thermochaetoides thermophila, UniProt G0S583); assay: colorimetric carbamoyl aspartate assay; assay type: biochemical; conditions: 5 mM CP; 50 mM Tris-acetate pH 8.3; 25 °C; 0.1 µM enzyme; substrate inhibition model; range printed jointly for WT and double mutant; read-out: S0.5^Asp
T1 construct: gene CTHT_0032600; isolated ATC domain aa 1939-2253; N-terminal His6-MBP cut with PreScission; E. coli BL21(DE3) pLysS; homotrimer, 119 kDa by SEC (ctATC2Cys, similar to WT)
T1 sequence (G0S583 entry or part of it): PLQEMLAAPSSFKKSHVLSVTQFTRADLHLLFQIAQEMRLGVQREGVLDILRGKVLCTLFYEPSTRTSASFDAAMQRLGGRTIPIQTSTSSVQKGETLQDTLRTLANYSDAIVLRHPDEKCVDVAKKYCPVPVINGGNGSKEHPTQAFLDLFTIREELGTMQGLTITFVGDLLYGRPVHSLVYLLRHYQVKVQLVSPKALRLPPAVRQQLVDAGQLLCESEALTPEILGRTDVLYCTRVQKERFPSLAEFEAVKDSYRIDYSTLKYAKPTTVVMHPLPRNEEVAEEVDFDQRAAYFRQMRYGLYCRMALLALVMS

[2] = biological target: T2, ctATC (ATC domain of C. thermophilum CAD-like protein) (Thermochaetoides thermophila, UniProt G0S583, N2045C/R2238C); assay: colorimetric carbamoyl aspartate assay; assay type: biochemical; conditions: 5 mM CP; 50 mM Tris-acetate pH 8.3; 25 °C; 0.1 µM enzyme; substrate inhibition model; range printed jointly for WT and double mutant; disulfide-crosslinked trimer; read-out: S0.5^Asp
T2 construct: gene CTHT_0032600; isolated ATC domain aa 1939-2253; N-terminal His6-MBP cut with PreScission; E. coli BL21(DE3) pLysS; homotrimer, 119 kDa by SEC (ctATC2Cys, similar to WT)
T2 sequence (G0S583 entry or part of it N2045C/R2238C): as the sequence (G0S583 entry or part of it) above, with N107C, R300C counted along it

[3] = biological target: T1, ctATC (ATC domain of C. thermophilum CAD-like protein); assay: differential scanning fluorimetry; assay type: binding; conditions: 1 mM PALA; 5 µM protein; pH 7.0; Tm without PALA 53.9 °C; transition state analog
[4] = biological target: T2, ctATC (ATC domain of C. thermophilum CAD-like protein); assay: differential scanning fluorimetry; assay type: binding; conditions: 1 mM PALA; 5 µM protein; pH 7.0; disulfide-crosslinked trimer; Tm without PALA 73.5 °C; transition state analog
[5] = biological target: ATC domain of C. thermophilum CAD-like protein with mutations N2045C and R2238C (ctATC2Cys) (Chaetomium thermophilum); assay: SEC; Superdex 200 10/300 GL in 20 mM Tris-HCl pH 8.0, 150 mM NaCl, room temperature; molecular weight estimated from calibration with standards
[6] = biological target: ATC domain of C. thermophilum CAD-like protein with mutations N2045C and R2238C (ctATC2Cys) (Chaetomium thermophilum); assay: crystal structure; crystals of ctATC2Cys free and with 2 mM carbamoyl phosphate (CP), space group P4(3)32, one subunit per asymmetric unit
[7] = biological target: full-length C. thermophilum CAD-like protein (Chaetomium thermophilum); assay: not stated; unpublished results: recombinant full-length protein isolated as hexameric particles

With N[C@@H](CC(=O)O)C(=O)O [Asp, aspartate] as the molecule, how does the Km [1] read?
The Km was 1500 to 2000 µM.

What about the Km [2] of the same molecule?
Its Km is 1500 to 2000 µM.

For O=C(O)C[C@H](NC(=O)CP(=O)(O)O)C(=O)O [PALA], which Tm [3] is on record?
The Tm was ~ 90 °C.

What about the Tm [4] of the same molecule?
The Tm was ~ 90 °C.

What does the source list for “ATC domain of C. thermophilum CAD-like protein with mutations N2045C and R2238C (ctATC2Cys) (domain or fragment)”?
stoichiometry N [5]: 3; stoichiometry N [6]: 3

With “full-length C. thermophilum CAD-like protein (natural protein)” as the molecule, how does the stoichiometry N [7] read?
The stoichiometry N was 6.
